Reference: publication PMC10442743 (Dalton Transactions (Cambridge, England : 2003), 2023)
Where two headings read alike, the source gives them in different places.

Key:
[1] = Molar conductivity in acetonitrile; format: physicochemical; conditions: 1 mM in acetonitrile, 25 °C
Procedure: The molar conductivity (ΛM, reported as S·cm2·mol–1) of solutions of 11CA in acetonitrile (1 mM) were measured in a Radiometer Copenhagen CDM92 equipped with a conductivity cell CDC641T glass platinum electrode at room temperature (25 °C). The conductivity of the pure solvent was used as standard controls.
Table S3. Solubility in water at 25 °C, n-octanol/water partition coefficient and molar conductivity of the 11CA. * below limit of detection = 5 ppt.

ct-DNA = experiment: Competitive DNA binding assay with fluorescent probes (DAPI, MG, PI)
Procedure: From the obtained fluorescence data, apparent DNA binding constants, Kapp, were calculated according to the competitive binding model described by Tse and Boger.[66]
Emission intensity measurements were performed using a SpectraMax M5e reader at room temperature. A 50 μM (bp) of ct-DNA was pre-incubated with the groove binding agents (MG and DAPI) (2 μM) and the intercalating agent propidium iodide (2 μM) for 30 min at 37 °C, to allow full interaction of the dyes into the ctDNA. Increasing amounts of 11Cl (0–100 μM) were added to this mixture and the final samples were incubated for 24 h at 37 °C. After incubation, the emission spectra were recorded at excitations of 633, 358, and 535 nm for the measurements of MG, DAPI, and PI, respectively. Quenching parameters were obtained by applying the Stern–Volmer equation (eqn (2)). The apparent binding constants, Kapp, were calculated according to the competitive binding model described by Tse and Boger[66] using eqn (4):[90]4 Kprobe[probe] = Kappc50where Kprobe is the binding constant of the probe, 9 × 10^5 and 5 × 10^6 M^−1 for MG[91] and DAPI,[92] respectively; [probe] is the concentration of probe used, 10 μM for both MG and DAPI; and c50 is the complex concentration when the fluorescence intensity of the probe is 50%. This value is obtained from the plot F0/F vs. [Q] when F0/F = 2.

MCF-7 = experiment: MTT cytotoxicity assay, MCF-7 cells; format: cell-based, human; conditions: MTT
Procedure: The cytotoxicity of 1–11CA was assessed against human breast cancer MCF-7 and MDA-MB-231 cells, and non-tumorigenic adherent mouse fibroblast connective tissue L929 cells using the MTT assay after 24 and 72 h (Tables S5 ^† and Table 1, respectively).
Then, necessary dilutions were made using the supplement DMEM, to prepare the range of tested concentrations. Since DMSO was used to solubilize the compounds, a supplemented DMEM + DMSO (at the same percentage as in the sequential dilutions) was considered as a control in the 3-[4,5-dimetylthiazole-2-yl]-2,5-diphenyltetrazolium bromide (MTT) assay.
L929, MCF-7, and MDA-MB-231 cell lines were cultured in DMEM supplemented with 10% (v/v) FBS and 1% (v/v) of penicillin–streptomycin. The cells were incubated in a humidified chamber at 37 °C under saturated air with a 5% CO2 atmosphere. Cells were passed at 80%–90% of confluency with 0.25% (w/v) trypsin and the cell culture media was changed every 2–3 days.
The compounds were tested on two breast cancer cell lines (MCF-7 and MDA-MB-231) and L929 fibroblasts, used as a reference for the safety evaluation according to ISO 10993-1:2009 “Biological evaluation of medical devices”. Cells were seeded on sterile 96-well plates at 50 000 cells per well (L929) and 20 000 cells per well (MCF-7 and MDA-MB-231) in supplemented DMEM medium (100 μL) for 24 h. The culture medium was removed and new media containing different concentrations of the compounds (0–1000 μM) was added to the wells (100 μL). Control cells were incubated under the same conditions in the absence of a compound. Cells were incubated for 24 and 72 h under the same conditions described above. Then, the medium was removed, and the cells were incubated with 3-(4,5-dimethylthiazol-2-yl)-2,5-diphenyltetrazolium bromide (MTT; 0.5 mg mL^−1) for 3 h. After this time, the medium was removed, and formazan crystals were solubilized with DMSO (100 μL per well). The absorbance in each well was read on a SynergyTM HT Multimode microplate reader (BioTek Instruments; Winooski, VT, USA) at 570 and 630 nm (for background correction), and the cell viability was calculated according to the following equation (eqn (1)):1 [drawing 3] where OD570(sample) and OD630(sample) are the optical densities of the solutions containing the compounds and OD570(control) and OD630(control) are controls without compound.
Each apoptosis value determination represents the mean ± standard deviation of 2 independent assays. The IC50 values were obtained using GraphPad Prism software and ANOVA (analysis of variance) was performed to determine the statistical difference between the IC50 values of different cell lines.

ctDNA = experiment: Circular dichroism / induced circular dichroism with calf thymus DNA
Procedure: Calf thymus (ct) DNA (Merck®) was used to perform the circular dichroism assay to detect conformational changes in the ctDNA induced by the compounds. CD spectral data was collected on a Chirascan™ V100 (Applied Photophysics) spectropolarimeter equipped with a large area Avalanche photodiodes detector and computer-controlled thermoelectrical cell holder using a 1 cm path length quartz cuvette. CD spectra of ctDNA in the absence and presence of different concentrations of 11Cl were recorded at wavelengths ranging from 320 to 190 nm under constant nitrogen flush at 25 °C. For each CD spectrum, the number of scans was set to 5, and spectral data were collected at 0.1 ms intervals. Additionally, methyl green (MG) and 4′,6-diamidino-2-phenylindole (DAPI), and propidium iodide (PI) were analyzed as minor and major groove binders and as an intercalator, respectively, to help identify the binding mode of 11Cl to DNA. Samples were prepared in 10 mM Tris-HCl buffer (pH 7.6) with 1 mM EDTA. The concentration of ctDNA was fixed at 100 μM (concerning base pairs) and the ctDNA to 11Cl ratio was varied between 0 and 1. The samples were incubated for 24 h at 37 °C and then analyzed in the CD spectropolarimeter.

[2] = Solubility in water (ICP-MS); conditions: 25 °C, limit of detection = 5 ppt
Procedure: sonication, the mixtures were stirred at 25 °C for 1 h. The saturated solutions were filtered
to remove any insoluble solids, dissolved in 0.5 mL of MilliQ water, and analyzed using
ICP-MS. Samples were submitted to acidic digestion with 2 mL of concentrated HNO3
(DigiPREP Jr. 15ml, 40 Pos, SCP Science). The digestion program was the following: 15
min to heat to 100°C and keep at 100°C for 60 min. After the digestion, the sample
volumes were precisely adjusted to 5 mL with MilliQ water. Samples were further diluted
30 times with 2% HNO3 solution and their Ru content was analyzed by ICP-MS using
standard mode on NexIon 350 D ICP-MS instrument (PerkinElmer). Yttrium was added
as an internal standard at a concentration of 2 ppb to all the solution and Ru quantitation
was performed using an external calibration curve with standards in the 0.05-50 ppb
range. All measurements were performed in triplicates.

[3] = complex concentration at 50% probe fluorescence, Table S9
[4] = ctDNA, DAPI competitive binding, Table S9
[5] = ctDNA, MG competitive binding, Table S9

With Cc1ccccc1.[Cl-].[Cl][Ru+]([PH](c1ccccc1)(c1ccccc1)c1ccccc1)[PH](c1ccccc1)(c1ccccc1)c1ccccc1 [Compound 11Cl, [Ru(η^6-toluene)(PPh3)2Cl]Cl] the “Conductivity (molar conductivity)” value [1] was 128 S·cm2/mol, the “C50, DAPI probe” value (ct-DNA; [3]) was 1.1 10−4 M and the “C50, MG probe” value (ct-DNA; [3]) was 2.1 10−4 M. The “KSV, DAPI probe” value (ct-DNA; [4]) was 8.8 ± 0.6 103 M−1, the “Kapp, DAPI probe” value (ct-DNA; [4]) was 4.4 ± 0.3 105 M−1 and the “kq, DAPI probe” value (ct-DNA; [4]) was 3.3 ± 0.3 1012 M−1. For the same molecule, the “KSV, MG probe” value (ct-DNA; [5]) was 4.8 ± 0.7 103 M−1, the “Kapp, MG probe” value (ct-DNA; [5]) was 0.43 ± 0.04 105 M−1 and the “kq, MG probe” value (ct-DNA; [5]) was 0.48 ± 0.07 1012 M−1. For the same molecule, the “quenching of PI (intercalator probe) fluorescence” value (ct-DNA; ctDNA, probe PI) was “no linear quenching was observed”, the “preference towards the minor groove” value (ct-DNA; from difference of Kapp values) was 10 fold and the IC50 (MCF-7; 24 h exposure, read-out: IC50 (µM) (average ± standard deviation) 24 h MCF-7) was 4 ± 0.3 µM. The IC50 (MCF-7; 72 h exposure, read-out: IC50 (μM) (average ± standard deviation) 72 h MCF-7) was 0.061 ± 0.003 µM, the “CD band 210 nm, intensity change” value (ctDNA; DNA, 24 h, 37 °C) was “decrease in the ellipticity” and the “CD band 210 nm, wavelength shift” value (ctDNA; DNA, 24 h, 37 °C) was “remained unchanged”. For the same molecule, the “CD band 220 nm (hydrogen bonding), intensity change” value (ctDNA; DNA, 24 h, 37 °C) was “increase in the circularity”, the “CD band 220 nm (hydrogen bonding), wavelength shift” value (ctDNA; DNA, 24 h, 37 °C) was “small bathochromic (red) shift” and the “CD band 246 nm (helicity), intensity change” value (ctDNA; DNA, 24 h, 37 °C) was “decrease in the ellipticity”. For the same molecule, the “CD band 246 nm (helicity), wavelength shift” value (ctDNA; DNA, 24 h, 37 °C) was “remained unchanged”, the “CD band 268−280 nm (base-pair stacking interactions), intensity change” value (ctDNA; DNA, 24 h, 37 °C) was “decrease in the ellipticity” and the “CD band 268−280 nm (base-pair stacking interactions), wavelength shift” value (ctDNA; DNA, 24 h, 37 °C) was “remained unchanged”. For the same molecule, the “decrease of the intensity of the ICD bands of DAPI” value (ctDNA; DNA–DAPI after treatment with 11Cl) was 35%, the “decrease of the intensity of the ICD bands of MG” value (ctDNA; DNA–MG after treatment with 11Cl) was 20% and the “Solubility (μM)” value [2] was 528 ± 88 µM. For the same molecule, the “Solubility (μg/mL)” value [2] was 416 ± 70 µg/mL.
